Each compound was assayed against T1, rat α2B adrenoceptor (Rattus norvegicus, UniProt P19328) (assay: Receptor binding assay, [3H]rauwolscine, CHO-RNG cell membranes). Details: 22°C, 30 minutes.
T1 construct: expressed in transfected cells; host or cells: CHO (CHO-RNG)
T1 sequence (P19328 1-453): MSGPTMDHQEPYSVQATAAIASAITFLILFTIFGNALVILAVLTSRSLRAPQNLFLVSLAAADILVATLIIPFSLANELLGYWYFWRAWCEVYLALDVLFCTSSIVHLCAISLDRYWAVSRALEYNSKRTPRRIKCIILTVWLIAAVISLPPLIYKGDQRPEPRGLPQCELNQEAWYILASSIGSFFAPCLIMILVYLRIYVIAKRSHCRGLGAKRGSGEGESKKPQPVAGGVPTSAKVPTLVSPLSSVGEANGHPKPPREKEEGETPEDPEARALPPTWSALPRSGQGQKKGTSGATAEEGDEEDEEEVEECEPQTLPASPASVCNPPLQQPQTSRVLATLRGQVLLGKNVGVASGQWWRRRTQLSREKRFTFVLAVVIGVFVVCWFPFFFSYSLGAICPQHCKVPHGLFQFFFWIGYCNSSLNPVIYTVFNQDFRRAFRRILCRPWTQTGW
Procedure: (§1) Cell preparation: Chinese hamster ovary (CHO) cells expressing the human α2A and human α2C (CHO-C10 and CHO-C4 respectively) receptors and CHO cells (CHO-RNG) expressing the rat α2B adrenoceptor were grown to near confluence in Dulbecco's modified Eagle's medium supplemented with 10% fetal bovine serum using standard cell culture methods. Cells were harvested by scraping and placed into cold buffer of the following composition: 50 mM Tris-HCl, 5 mM EDTA, pH 7.4). Cells were then homogenized with a Polytron homogenizer for 2 X 10 sec at setting #7, and centrifuged for 20 minutes at 49,000 x g. The pellet fraction was washed (resuspended in Tris-HCl, pH 8 buffer and centrifuged for 15-20 minutes at 49,000 x g) 2 times and stored at -100°C until binding assay.
Binding Studies: The radioligands [^3H]rauwolscine (specific activity 80 Ci/mmol) and [^3H]prazosin (specific activity 76 Ci/mmol) were obtained from New England Nuclear, Boston, MA. Frozen membrane pellet was resuspended in 25 mM glycine/glycine, pH 7.5 and incubated with radioligand under the following conditions: CHO-C10, CHO-RNG, CHO-C4-[^3H]rauwolscine, 22°C, 30 minutes; RKC-[^3H]rauwolscine, 0°C, 120 minutes; and, HCC-[^3H]prazosin, 22°C, 30 minutes in a final volume of 500 ul. At the end of the incubation period, the samples were filtered through glass filters (Whatman GF/B) in a 96 well cell harvester and rapidly washed four times with 4 mL of iced-cold 50 mM Tris-HCl buffer. The filters were then oven dried and transferred to scintillation vials containing 10 mL of Beckman's Ready Protein® scintillation cocktail for counting. Specific binding defined by 10 uM phentolamine for competition studies were as follows: 2.4 nM [^3H]brimonidine-RbICB 62%; 2.4 nM [^3H]rauwolscine-RbICB 75%; 2 nM [^3H]rauwolscine-RbKc 88%; 0.3 nM [^3H] rauwolscine-CHO-C10 99%; 0.4 nM [^3H]rauwolscine-CHO-RNG 99%, 0.3 nM [^3H]prazosin 87%; and 1 nM [^3H]rauwolscine-CHO-C4 90%. Protein concentrations were determined with a protein assay kit from Bio Rad. Binding isotherms, equilibrium dissociation and affinity constants were analyzed and determined by the non-linear least squares curve fitting programs EBDA (BioSoft) or AccuFit Competition/Saturation by Beckman.
as §1, with “α2A (CHO-C10)” for “α2A”, “and” for “and human α2C (CHO-C10 and CHO-C4 respectively) receptors and CHO cells (CHO-RNG) expressing”, “α2B(CHO-RNG) human α2Aadrenoceptors” for “α2B adrenoceptor”
The radioligands [^3H)rauwolscine (specific activity 80 Ci/mmol) and [^3H]prazosin (specific activity 76 Ci/mmol) were obtained from New England Nuclear, Boston, MA. Frozen membrane pellet was resuspended in 25 mM glycine/glycine, pH 7.4 and incubated with radioligand under the following conditions: CHO-C10, CHO-RNG, CHO-C4-[^3H]rauwolscine, 22°C, 30 min.; and, HCC-[^3H]prazosin, 22°C, 30 minutes in a final volume of 500 ul. At the end of the incubation period, the samples were filtered through glass fiber filters (Whatman GF/B) in a 96 well cell harvester and rapidly washed four times with 4 mL of iced-cold 50 mM Tris-CHl buffer. The filters were then oven dried and transferred to scintillation vials containing 5 mL of Beckman's Ready Protein® scintillation cocktail for counting. Specific binding defined by 10 uM phentolamine for competition studies were as follows: 0.3 nM[^3H] rauwolscine-CHO-C10 99%; 0.4 nM [^3H]rauwolscine-CHO-RNG 99%, and 0.3 nM [^3H] prazosin-HCC 87%. Protein concentrations were determined with a protein assay kit from Bio Rad. […]

Ki	Structure (SMILES)
1890 nM	c1ccc(Nc2ncc[nH]2)cc1
434 nM	COc1ccc(Nc2ncc[nH]2)c(C)c1
587 nM	Clc1cccc(Cl)c1Nc1ncc[nH]1
12900 nM	Brc1c(Nc2ncc[nH]2)ccc2nccnc12
82 nM	Cc1c(Nc2ncc[nH]2)ccc2c1OCCO2
1940 nM	Clc1ccccc1Nc1ncc[nH]1
152 nM	c1cc2c(c(Nc3ncc[nH]3)c1)CCCC2
1450 nM	Brc1ccccc1Nc1ncc[nH]1
561 nM	Cc1ccccc1Nc1ncc[nH]1

Structure (SMILES)	Ki
Cc1c(Nc2ncc[nH]2)ccc2nccnc12	1160 nM
Cc1c(Nc2ncc[nH]2)ccc2c1NCCO2	436 nM
